Patent US11130769B2 (Prelude Therapeutics Incorporated, priority 2018, dated 2021)

Assays:
[1] = target: MCL-1 (Homo sapiens (Human), UniProt Q07820); experiment: Cell free Mcl-1:Bim affinity assay (fluorescence polarization competition); type: binding; settings: 15 nM MCL-1, 5 nM FITC-Bim, 1 hour at room temperature; class symbols; read-out: BIM_Ki
Summary of the method: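 Fluorescence polarization competition: 10-point 3-fold compound dilutions displaced 5 nM FITC-Bim from 15 nM MCL-1 over 1 h at room temperature. Ki was derived from the fitted IC50 using the Nikolovska-Coleska equation, with percent inhibition normalized to DMSO and positive controls.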

[2] = tested on: H929 cells; experiment: Cell viability assay (H929 10 FBS); type: cell-based; settings: Homo sapiens, NCI-H929, 24 hours, read-out: H929_10FBS IC50
Summary of the method: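 ATP-based luminescence (CellTiter-Glo or ATPlite 1 Step, 30-60 min at RT) gauged viability of H929 myeloma cells after 24 h compound treatment at 37 °C. Cells plated at 4000 per well in 10% FBS RPMI 1640 supplemented with pyruvate, HEPES and glucose.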

Sequence of MCL-1 (Q07820 whole entry): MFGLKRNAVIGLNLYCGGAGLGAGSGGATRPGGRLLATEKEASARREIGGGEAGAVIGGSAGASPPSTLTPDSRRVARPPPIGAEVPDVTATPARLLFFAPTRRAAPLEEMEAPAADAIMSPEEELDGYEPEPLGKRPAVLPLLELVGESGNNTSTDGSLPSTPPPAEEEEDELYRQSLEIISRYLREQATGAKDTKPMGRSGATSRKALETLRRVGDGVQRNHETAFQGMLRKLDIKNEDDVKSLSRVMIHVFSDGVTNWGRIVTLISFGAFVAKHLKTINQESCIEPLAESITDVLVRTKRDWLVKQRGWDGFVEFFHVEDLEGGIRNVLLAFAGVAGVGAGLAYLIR

Compound	Ki [1] [nM]	IC50 [2] [nM]
CO[C@@H]1CCN(C(=O)O[C@H]2/C=C/CN(C)C(C)(C)C(=O)NS(=O)(=O)c3ccc4c(c3)N(C[C@@H]3CC[C@H]32)C[C@@]2(CCCc3cc(Cl)ccc32)CO4)C1 [Example 215, [(3R,6R,7S,8E,22S)-6′-Chloro-11,12,12-trimethyl-13,15,15-trioxo-spiro[20-oxa-15-thia-1,11,14-triazatetracyclo[14.7.2.03,6.019,24]pentacosa-8,16,18,24-tetraene-22,1′-tetralin]-7-yl] (3R)-3-methoxypyrrolidine-1-carboxylate]	< 1	< 500
CN1C/C=C/[C@H](OC(=O)N2CCC2)[C@@H]2CC[C@H]2CN2C[C@@]3(CCCc4cc(Cl)ccc43)COc3ccc(cc32)S(=O)(=O)NC(=O)C1(C)C [Example 216, [(3R,6R,7S,8E,22S)-6′-Chloro-11,12,12-trimethyl-13,15,15-trioxo-spiro[20-oxa-15-thia-1,11,14-triazatetracyclo[14.7.2.03,6.019,24]pentacosa-8,16,18,24-tetraene-22,1′-tetralin]-7-yl]azetidine-1-carboxylate]	< 1	< 500
COC1CN(C(=O)O[C@H]2/C=C/CN(C)C(C)(C)C(=O)NS(=O)(=O)c3ccc4c(c3)N(C[C@@H]3CC[C@H]32)C[C@@]2(CCCc3cc(Cl)ccc32)CO4)C1 [Example 217, [(3R,6R,7S,8E,22S)-6′-Chloro-11,12,12-trimethyl-13,15,15-trioxo-spiro[20-oxa-15-thia-1,11,14-triazatetracyclo[14.7.2.03,6.019,24]pentacosa-8,16,18,24-tetraene-22,1′-tetralin]-7-yl] 3-methoxyazetidine-1-carboxylate]	< 1	< 500
CN(C(=O)O[C@H]1/C=C/CN(C)C(C)(C)C(=O)NS(=O)(=O)c2ccc3c(c2)N(C[C@@H]2CC[C@H]21)C[C@@]1(CCCc2cc(Cl)ccc21)CO3)[C@@H]1CCOC1 [Example 218, [(3R,6R,7S,8E,22S)-6′-Chloro-11,12,12-trimethyl-13,15,15-trioxo-spiro[20-oxa-15-thia-1,11,14-triazatetracyclo[14.7.2.03,6.019,24]pentacosa-8,16,18,24-tetraene-22,1′-tetralin]-7-yl] N-methyl-N-[(3R)-tetrahydrofuran-3-yl]carbamate]	< 1	< 500
CCN1C/C=C/[C@H](O)[C@@H]2CC[C@H]2CN2C[C@@]3(CCCc4cc(Cl)ccc43)COc3ccc(cc32)S(=O)(=O)NC(=O)C1(C)C [Example 219, (3R,6R,7S,8E,22S)-6′-Chloro-7-hydroxy-11-ethyl-12,12-dimethyl-15,15-dioxo-spiro[20-oxa-15-thia-1,11,14-triazatetracyclo[14.7.2.03,6.019,24]pentacosa-8,16,18,24-tetraene-22,1′-tetralin]-13-one]	1 to 100	< 500
CCN1C/C=C/[C@H](OC(=O)NC2CCOCC2)[C@@H]2CC[C@H]2CN2C[C@@]3(CCCc4cc(Cl)ccc43)COc3ccc(cc32)S(=O)(=O)NC(=O)C1(C)C [Example 220, [(3R,6R,7S,8E,22S)-6′-Chloro-11-ethyl-12,12-dimethyl-13,15,15-trioxo-spiro[20-oxa-15-thia-1,11,14-triazatetracyclo[14.7.2.03,6.019,24]pentacosa-8,16,18,24-tetraene-22,1′-tetralin]-7-yl]N-tetrahydropyran-4-ylcarbamate]	< 1	< 500
CCN1C/C=C/[C@H](OC(=O)N2CCOCC2)[C@@H]2CC[C@H]2CN2C[C@@]3(CCCc4cc(Cl)ccc43)COc3ccc(cc32)S(=O)(=O)NC(=O)C1(C)C [Example 221, [(3R,6R,7S,8E,22S)-6′-Chloro-11-ethyl-12,12-dimethyl-13,15,15-trioxo-spiro[20-oxa-15-thia-1,11,14-triazatetracyclo[14.7.2.03,6.019,24]pentacosa-8,16,18,24-tetraene-22,1′-tetralin]-7-yl]morpholine-4-carboxylate]	< 1	< 500
CCN1C/C=C/[C@H](OC(=O)N2CCC(OC)CC2)[C@@H]2CC[C@H]2CN2C[C@@]3(CCCc4cc(Cl)ccc43)COc3ccc(cc32)S(=O)(=O)NC(=O)C1(C)C [Example 222, [(3R,6R,7S,8E,22S)-6′-Chloro-11-ethyl-12,12-dimethyl-13,15,15-trioxo-spiro[20-oxa-15-thia-1,11,14-triazatetracyclo[14.7.2.03,6.019,24]pentacosa-8,16,18,24-tetraene-22,1′-tetralin]-7-yl] 4-methoxypiperidine-1-carboxylate]	< 1	< 500
CCN1C/C=C/[C@H](OC(=O)N2CC(NC)C2)[C@@H]2CC[C@H]2CN2C[C@@]3(CCCc4cc(Cl)ccc43)COc3ccc(cc32)S(=O)(=O)NC(=O)C1(C)C [Example 223, [(3R,6R,7S,8E,22S)-6′-Chloro-11-ethyl-12,12-dimethyl-13,15,15-trioxo-spiro[20-oxa-15-thia-1,11,14-triazatetracyclo[14.7.2.03,6.019,24]pentacosa-8,16,18,24-tetraene-22,1′-tetralin]-7-yl] 3-(methylamino)azetidine-1-carboxylate]	< 1	< 500
CCN1C/C=C/[C@H](OC(=O)N2CC(N(C)C)C2)[C@@H]2CC[C@H]2CN2C[C@@]3(CCCc4cc(Cl)ccc43)COc3ccc(cc32)S(=O)(=O)NC(=O)C1(C)C [Example 224, [(3R,6R,7S,8E,22S)-6′-Chloro-11-ethyl-12,12-dimethyl-13,15,15-trioxo-spiro[20-oxa-15-thia-1,11,14-triazatetracyclo[14.7.2.03,6.019,24]pentacosa-8,16,18,24-tetraene-22,1′-tetralin]-7-yl] 3-(dimethylamino)azetidine-1-carboxylate]	< 1	< 500
CCN1C/C=C/[C@H](OC(=O)N2CCN(CCOC)CC2)[C@@H]2CC[C@H]2CN2C[C@@]3(CCCc4cc(Cl)ccc43)COc3ccc(cc32)S(=O)(=O)NC(=O)C1(C)C [Example 225, [(3R,6R,7S,8E,22S)-6′-Chloro-11-ethyl-12,12-dimethyl-13,15,15-trioxo-spiro[20-oxa-15-thia-1,11,14-triazatetracyclo[14.7.2.03,6.019,24]pentacosa-8,16,18,24-tetraene-22,1′-tetralin]-7-yl] 4-(2-methoxyethyl)piperazine-1-carboxylate]	1 to 100	< 500
CN(C(=O)O[C@H]1/C=C/CN(C)C(C)(C)C(=O)NS(=O)(=O)c2ccc3c(c2)N(C[C@@H]2CC[C@H]21)C[C@@]1(CCCc2cc(Cl)ccc21)CO3)[C@H]1CCOC1 [Example 226, [(3R,6R,7S,8E,22S)-6′-Chloro-11,12,12-trimethyl-13,15,15-trioxo-spiro[20-oxa-15-thia-1,11,14-triazatetracyclo[14.7.2.03,6.019,24]pentacosa-8,16,18,24-tetraene-22,1′-tetralin]-7-yl] N-methyl-N-[(3S)-tetrahydrofuran-3-yl]carbamate]	< 1	< 500

Results, then the molecule that gave them:

Ki [1] [nM]	IC50 [2] [nM]	Compound
< 1	< 500	CNC(=O)O[C@H]1/C=C/COC2(CC2)C(=O)NS(=O)(=O)c2ccc3c(c2)N(C[C@@H]2CC[C@H]21)C[C@@]1(CCCc2cc(Cl)ccc21)CO3 [Example 227, [(3R,6R,7S,8E,22S)-6′-Chloro-12,12-ethylene-13,15,15-trioxo-spiro[11,20-dioxa-15-thia-1,14-diazatetracyclo[14.7.2.03,6.019,24]pentacosa-8,16,18,24-tetraene-22,1′-tetralin]-7-yl] N-methylcarbamate]
< 1	< 500	CCO[C@@H]1CCN(C(=O)O[C@H]2/C=C/COC3(CCC3)C(=O)NS(=O)(=O)c3ccc4c(c3)N(C[C@@H]3CC[C@H]32)C[C@@]2(CCCc3cc(Cl)ccc32)CO4)C1 [Example 228, [(3R,6R,7S,8E,22S)-6′-Chloro-12,12-(1,3-propylene)-13,15,15-trioxo-spiro[11,20-dioxa-15-thia-1,14-diazatetracyclo[14.7.2.03,6.019,24]pentacosa-8,16,18,24-tetraene-22,1′-tetralin]-7-yl] (3R)-3-ethoxypyrrolidine-1-carboxylate]
< 1	< 500	CO[C@@H]1CCN(C(=O)O[C@H]2/C=C/COC3(CCC3)C(=O)NS(=O)(=O)c3ccc4c(c3)N(C[C@@H]3CC[C@H]32)C[C@@]2(CCCc3cc(Cl)ccc32)CO4)C1 [Example 229, [(3R,6R,7S,8E,22S)-6′-Chloro-12,12-(1,3-propylene)-13,15,15-trioxo-spiro[11,20-dioxa-15-thia-1,14-diazatetracyclo[14.7.2.03,6.019,24]pentacosa-8,16,18,24-tetraene-22,1′-tetralin]-7-yl] (3S)-3-methoxypyrrolidine-1-carboxylate]
< 1	< 500	CCOC1CN(C(=O)O[C@H]2/C=C/COC3(CCC3)C(=O)NS(=O)(=O)c3ccc4c(c3)N(C[C@@H]3CC[C@H]32)C[C@@]2(CCCc3cc(Cl)ccc32)CO4)C1 [Example 230, [(3R,6R,7S,8E,22S)-6′-Chloro-12,12-(1,3-propylene)-13,15,15-trioxo-spiro[11,20-dioxa-15-thia-1,14-diazatetracyclo[14.7.2.03,6.019,24]pentacosa-8,16(25),17,19(24)-tetraene-22,1′-tetralin]-7-yl]-N,N-1,3-(2-ethoxy)propylene carbamate]
< 1	< 500	CN(C)C(=O)O[C@H]1/C=C/COC2(CCC2)C(=O)NS(=O)(=O)c2ccc3c(c2)N(C[C@@H]2CC[C@H]21)C[C@@]1(CCCc2cc(Cl)ccc21)CO3 [Example 231, [(3R,6R,7S,8E,22S)-7′-Chloro-12,12-(1,3-propylene)-13,15,15-trioxo-spiro[11,20-dioxa-15λ6-thia-1,14-diazatetracyclo[14.7.2.03,6.019,24]pentacosa-8,16,18,24-tetraene-22,4′-chromane]-7-yl] N,N-dimethyl-1-carboxylate]
